According to ChEMBL document CHEMBL1201862, “PubChem BioAssay data set” (2004):
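Step 1: Grow cells in 96-well plates. Step 2: Expose to compound for 48 hours at 5 concentrations. Step 3: Interpolate endpoints linearly; if unreached, use highest concentration. Abbreviation: GI50, concentration required for 50% inhibition of growth.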 Calls of active or inactive are those of the source. Rule as the data show it: active = GI50 up to about 1.1 µM and inactive = higher.

Columns and labels:
Assay in all cases: NCI-60 cell line screen, 48 h
ACHN = system: ACHN
HOP-92 = system: HOP-92
SN12C = system: SN12C
SF-268 = system: SF-268
HCC 2998 = system: HCC 2998
CAKI-1 = system: CAKI-1
HOP-62 = system: HOP-62
NCI/ADR-RES = system: NCI/ADR-RES
K562 = system: K562
UACC-62 = system: UACC-62
UACC-257 = system: UACC-257
NCI-H460 = system: NCI-H460
TK-10 = system: TK-10
RPMI-8226 = system: RPMI-8226
MDA-MB-231 = system: MDA-MB-231
Hs-578T = system: Hs-578T
A549 = system: A549
KM12 = system: KM12
NCI-H23 = system: NCI-H23
IGROV-1 = system: IGROV-1
MCF7 = system: MCF7
MOLT-4 = system: MOLT-4
HL-60 = system: HL-60
OVCAR-4 = system: OVCAR-4
T47D = system: T47D
HCT-15 = system: HCT-15
NCI-H522 = system: NCI-H522
HCT-116 = system: HCT-116
SF-539 = system: SF-539
SNB-19 = system: SNB-19
NCI-H226 = system: NCI-H226
MDA-N = system: MDA-N
OVCAR-8 = system: OVCAR-8
CCRF-CEM = system: CCRF-CEM
SK-MEL-28 = system: SK-MEL-28
SK-MEL-2 = system: SK-MEL-2
A498 = system: A498
DU-145 = system: DU-145
BT-549 = system: BT-549
SF-295 = system: SF-295
HT-29 = system: HT-29
OVCAR-3 = system: OVCAR-3
M14 = system: M14
LOX IMVI = system: LOX IMVI
PC-3 = system: PC-3
RXF 393 = system: RXF 393
MDA-MB-435 = system: MDA-MB-435
SK-OV-3 = system: SK-OV-3
COLO 205 = system: COLO 205
SW-620 = system: SW-620
Malme-3M = system: Malme-3M
EKVX = system: EKVX
U-251 = system: U-251
786-0 = system: 786-0
OVCAR-5 = system: OVCAR-5

Measured: GI50

O=C(N/N=C(COc1cccc(Cl)c1)\N=C\c1ccncc1)c1ccncc1
> 100 µM: HCT-15
inactive: ACHN > 100 µM | HOP-92 35.6 µM | SN12C > 100 µM | SF-268 > 100 µM | HCC 2998 > 100 µM | CAKI-1 > 100 µM | HOP-62 > 100 µM | NCI/ADR-RES > 100 µM | K562 > 100 µM | UACC-62 > 100 µM | UACC-257 > 100 µM | NCI-H460 > 100 µM | TK-10 > 100 µM | RPMI-8226 > 100 µM | MDA-MB-231 > 100 µM | Hs-578T > 100 µM | A549 > 100 µM | KM12 > 100 µM | NCI-H23 > 100 µM | IGROV-1 > 100 µM | MCF7 > 100 µM | MOLT-4 > 100 µM | HL-60 > 100 µM | OVCAR-4 > 100 µM | T47D > 100 µM | NCI-H522 > 100 µM | HCT-116 > 100 µM | SF-539 > 100 µM | SNB-19 > 100 µM | NCI-H226 > 100 µM | MDA-N > 100 µM | OVCAR-8 > 100 µM | CCRF-CEM > 100 µM | SK-MEL-28 > 100 µM | SK-MEL-2 > 100 µM | A498 68.9 µM | DU-145 > 100 µM | BT-549 > 100 µM | SF-295 > 100 µM | HT-29 > 100 µM | OVCAR-3 > 100 µM | M14 > 100 µM | LOX IMVI > 100 µM | PC-3 > 100 µM | RXF 393 36.4 µM | MDA-MB-435 75.3 µM | SK-OV-3 > 100 µM | COLO 205 > 100 µM | SW-620 > 100 µM | Malme-3M > 100 µM | EKVX > 100 µM | U-251 > 100 µM | 786-0 > 100 µM | OVCAR-5 > 100 µM
